Reference: patent publication US5773014A, “Compositions and methods for inhibiting the formation of unwanted skin pigmentation” (priority 1996, dated 1998)
Converted amounts (≈) assume the structure as drawn.

What was measured:
tyrosinase = experiment: in vitro tyrosinase inhibition (dopachrome formation from L-Dopa, spectrophotometry at 475 nm); type: biochemical
Excerpt: Tyrosinase catalyzes the formation of L-dopaquinone, and then dopachrome (in the eumelanin pathway), from L-Dopa. […] Comparisons in the rate at which this colored substance appears in the presence of a candidate whitening material indicate the effect of the material on enzymatic activity; complete absence of dopachrome reflects total inhibition of tyrosinase.

solubility = type: physicochemical; conditions: read-out: max. solubility
cells in a culture = conditions: reported for other skin whiteners; cited from earlier work
human skin explants = conditions: 0.55% (w/v), positive control; L-Dopa 0.05M, 15 hours at 37° C.
Method: The anti-tyrosinase activity of the invention was also evaluated using an ex vivo tissue model by exposing human skin explants to the material. […] Oxidation of L-Dopa by tyrosinase produces in the melanocyte an observable black pigment, which can easily be detected by optical microscopy. Tyrosinase activity can be measured by the intensity of the observed coloration.
A positive control and a negative control were also conducted in the same experiment. […] The explants, each exposed to a different test solution, were incubated with L-Dopa (0.05M) for 15 hours at 37° C. After fixation and inclusion in paraffin, the skin slices were colored with hemalun/eosin/safran and cresyl violet, and observed by optical microscopy under white light.

Tyrosinase Inhibition (%) (tyrosinase; concentration 0.1%) | Structure (SMILES) | Tyrosinase Inhibition (%) (tyrosinase; concentration 1%) | Tyrosinase Inhibition (%) (tyrosinase; concentration 5%) | IC50 (cytotoxicity, kills more than 50% of the cells in a culture) (cells in a culture) [µg/mL] | other results
66 | O=C1O[C@H]([C@@H](O)CO)C(O)=C1O [Ascorbic acid, ascorbic acid] |  |  | 880 | 
71 | O=c1cc(CO)occ1O [kojic acid] | 80 |  |  | 

The remaining lines, values behind:

Structure (SMILES) | Tyrosinase Inhibition (%) (tyrosinase; concentration 0.1%) | Tyrosinase Inhibition (%) (tyrosinase; concentration 1%) | Tyrosinase Inhibition (%) (tyrosinase; concentration 5%) | IC50 (cytotoxicity, kills more than 50% of the cells in a culture) (cells in a culture) [µg/mL] | other results
O=C(O)CN(CCN(CC(=O)O)CC(=O)O)CC(=O)O [EDTA, ethylenediaminetetraacetic acid] | 0 | 47.3 | 78.9 |  | 
OC[C@H]1O[C@@H](Oc2ccc(O)cc2)[C@H](O)[C@@H](O)[C@@H]1O [Pure Arbutin, arbutin] |  |  | 45 |  | Tyrosinase Inhibition (%) (tyrosinase; concentration 0.2%): 20%; Tyrosinase Inhibition (%) (tyrosinase; concentration 0.5%): 25%; Tyrosinase Inhibition (%) (tyrosinase; concentration 2.5%): 35%; solubility (solubility): 50 mg/mL (≈ 184 mM)
Oc1ccc(O)cc1 [hydroquinone] |  |  |  | 5.5 | tyrosinase-inhibiting activity (in words) (tyrosinase; tested at different concentrations (FIG. 1)): exhibits no tyrosinase-inhibiting activity; formation of melanin in explant melanocytes (human skin explants): completely inhibited the formation of melanin
CCCCC/C=C\C/C=C\CCCCCCCC(=O)O [linoleic acid] |  |  |  | 2.8 | 
